For 45 molecules, IC50 results are on record in patent US20260166039A1 (SCHRÖDINGER, INC., priority 2022, published 2026).

What is called IC50 is the concentration at which inhibition is half-maximal. Read a high IC50 as lower potency.

One assay deals with T1, Wee1 kinase domain (Homo sapiens, UniProt P30291).
T1 construct: Wee1 kinase domain was purchased from Carna (catalog #05-177); purchased Carna 05-177
T1 sequence (P30291 299-569 limits assumed): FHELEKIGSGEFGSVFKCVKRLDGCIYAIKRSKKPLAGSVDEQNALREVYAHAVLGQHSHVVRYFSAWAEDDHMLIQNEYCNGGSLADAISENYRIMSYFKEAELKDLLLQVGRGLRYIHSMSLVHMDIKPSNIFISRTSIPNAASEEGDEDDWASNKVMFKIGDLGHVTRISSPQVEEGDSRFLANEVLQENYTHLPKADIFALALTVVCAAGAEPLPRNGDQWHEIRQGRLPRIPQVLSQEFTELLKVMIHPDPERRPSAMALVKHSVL
The assay is described as follows: Wee1 Kinase Biochemical Assay (ADP-Glo). The conditions noted are these: Wee1 kinase domain, 15 uM ATP, ADP-Glo. An outline of the steps:
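ADP-Glo luminescence readout of ADP produced by 1 nM kinase domain phosphorylating Poly(Lys,Tyr 4:1) (2 ng/mL) at 15 uM ATP. Reaction ran 4 h, 25 °C, in Tris/MgCl2 buffer with BSA and DTT. Inhibition scaled between DMSO (high) and saturating control inhibitor (low).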
In general terms: ADP-Glo first removes unused ATP, then detects ADP through luciferase.
For the molecule `C[C@H]1COC(=O)N1c1cccc(N2c3nc(N)ncc3[C@@]3(C)COC(C)(C)C[C@@H]23)n1` (single isomer, unassigned) [Example 356], the IC50 is 0.01 to 0.1 µM.

The molecule `C[C@H]1COC(=O)N1c1cccc(N2c3nc(N)ncc3[C@]3(C)COC(C)(C)C[C@H]23)n1` (single isomer, unassigned) [Example 357] showed an IC50 of 0.1 to 1 µM. `CNCc1ccc(Nc2ncc3c(n2)N(c2cccc(N4C(=O)OC[C@@H]4C)n2)[C@H]2CC(C)(C)OC[C@@]32C)cc1` (single isomer, unassigned) [Example 359] came in with a concentration for half-maximal inhibition (IC50) of 0.01 to 0.1 µM. Consider `CC1(C)C[C@H]2N(c3cccc(N=S(C)(C)=O)n3)c3nc(Nc4ccc5cnnn5c4)ncc3[C@@]2(C)CO1` (single isomer, unassigned) [Example 362], for which the IC50 is < 0.01 µM.

In turn, `CC1(C)C[C@H]2N(c3cccc(N=S(C)(C)=O)n3)c3nc(Nc4ncccc4F)ncc3[C@@]2(C)CO1` (single isomer, unassigned) [Example 368] returned an IC50 of 0.01 to 0.1 µM. For the molecule `CC1(C)C[C@H]2N(c3cccc(N=S(C)(C)=O)n3)c3nc(Nc4ccc5cnoc5c4)ncc3[C@@]2(C)CO1` (single isomer, unassigned) [Example 381], the IC50 is < 0.01 µM.

Regarding `CC1(C)C[C@H]2N(c3cccc(N=S(C)(C)=O)n3)c3nc(Nc4cn5ccnc5cn4)ncc3[C@@]2(C)CO1` (single isomer, unassigned) [Example 382], the IC50 lay in the range of 0.01 to 0.1 µM. On to `Cn1ccc2nc(Nc3ncc4c(n3)N(c3cccc(N=S(C)(C)=O)n3)[C@@H]3CC(C)(C)OC[C@]43C)cnc21` (single isomer, unassigned) [Example 383], for which the IC50 was < 0.01 µM. As for `CC1(C)C[C@H]2N(c3cccc(N=S(C)(C)=O)n3)c3nc(Nc4ccc5ncnn5c4)ncc3[C@@]2(C)CO1` (single isomer, unassigned) [Example 384], the IC50 was < 0.01 µM. Regarding `CC1(C)C[C@H]2N(c3cccc(N=S(C)(C)=O)n3)c3nc(Nc4ccn5ncnc5c4)ncc3[C@@]2(C)CO1` (single isomer, unassigned) [Example 385], the IC50 was < 0.01 µM.

Regarding `CC1(C)C[C@H]2N(c3cccc([C@@H]4CCCN4)n3)c3nc(Nc4ccn(C5CCOCC5)c(=O)c4)ncc3[C@@]2(C)CO1` (single isomer, unassigned) [Example 392], the IC50 was < 0.01 µM.

Regarding `CC(=O)Nc1ncc2c(n1)N(c1cccc(N=S(C)(C)=O)n1)[C@@H]1CC(C)(C)OC[C@]21C` (single isomer, unassigned) [Example 398], the IC50 fell in the range of 0.01 to 0.1 µM.

The same assay, now with this note: class symbols; 1 nM Wee1 enzyme, 15 uM ATP, 4 hours at 25° C.
Take `CC1(C)C[C@H]2N(c3cccc(N=S(C)(C)=O)n3)c3nc(NC(=O)c4ccccc4)ncc3[C@@]2(C)CO1` (single isomer, unassigned) [Example 404]: the IC50 was 0.01 to 0.1 µM. On the same count and under the same terms, next, `CC1(C)C[C@H]2N(c3cccc(N=S(C)(C)=O)n3)c3nc(NC(=O)c4cccnc4)ncc3[C@@]2(C)CO1` (single isomer, unassigned) [Example 405]: 0.01 to 0.1 µM; `CC1(C)C[C@H]2N(c3cccc(N=S(C)(C)=O)n3)c3nc(NC(=O)c4ccccn4)ncc3[C@@]2(C)CO1` (single isomer, unassigned) [Example 407]: 0.01 to 0.1 µM. Same read-out and setting: next, `CC1(C)C[C@H]2N(c3cccc(N=S(C)(C)=O)n3)c3nc(NC(=O)c4ccccc4F)ncc3[C@@]2(C)CO1` (single isomer, unassigned) [Example 409]: 0.1 to 1 µM. Consider `CC1(C)C[C@H]2N(c3cccc(N=S(C)(C)=O)n3)c3nc(NC(=O)C4(F)CC4)ncc3[C@@]2(C)CO1` (single isomer, unassigned) [Example 410], for which the IC50 fell in the range of 0.01 to 0.1 µM.

The molecule `CN1C[C@H]2C[C@@H]1CN2c1ccc(Nc2ncc3c(n2)N(c2cccc(C(C)(C)O)n2)[C@H]2CC(C)(C)OC[C@@]32C)cc1` (single isomer, unassigned) [Example 414] showed an IC50 of 0.1 to 1 µM. In turn, `CN1C[C@@H]2C[C@H]1CN2c1ccc(Nc2ncc3c(n2)N(c2cccc(C(C)(C)O)n2)[C@H]2CC(C)(C)OC[C@@]32C)cc1` (single isomer, unassigned) [Example 415] returned a half-inhibitory concentration (IC50) of 0.1 to 1 µM. For the molecule `CC1(C)C[C@H]2N(c3cccc(C(C)(C)O)n3)c3nc(Nc4ccc(O[C@@H]5CCNC5)cc4)ncc3[C@@]2(C)CO1` (single isomer, unassigned) [Example 418], the IC50 was in the range of 0.01 to 0.1 µM. With `CC1(C)C[C@@H]2N(c3cccc(C(C)(C)O)n3)c3nc(Nc4ccc(O[C@H]5CCNC5)cc4)ncc3[C@]2(C)CO1` (single isomer, unassigned) [Example 420], the IC50 is 0.01 to 0.1 µM.

As to `CN1CC[C@H](Oc2ccc(Nc3ncc4c(n3)N(c3cccc(C(C)(C)O)n3)[C@H]3CC(C)(C)OC[C@@]43C)cc2)C1` (single isomer, unassigned) [Example 422], the IC50 is 0.01 to 0.1 µM.

The molecule `CN1CC[C@@H](Oc2ccc(Nc3ncc4c(n3)N(c3cccc(C(C)(C)O)n3)[C@@H]3CC(C)(C)OC[C@]43C)cc2)C1` (single isomer, unassigned) [Example 424] came in with a half-inhibitory concentration (IC50) of 0.01 to 0.1 µM.

`Cc1cc(Nc2ncc3c(n2)N(c2cccc(C(C)(C)O)n2)[C@H]2CC(C)(C)OC[C@@]32C)ccc1N1C[C@H]2C[C@@H]1CN2C` (single isomer, unassigned) [Example 426] registered an IC50 of 0.01 to 0.1 µM. `CN1C[C@H]2C[C@@H]1CN2c1ccc(Nc2ncc3c(n2)N(c2cccc(C(C)(C)O)n2)[C@H]2CC(C)(C)OC[C@@]32C)cc1F` (single isomer, unassigned) [Example 428] gave an IC50 of 0.1 to 1 µM.

`Cc1cc(Nc2ncc3c(n2)N(c2cccc(C(C)(C)O)n2)[C@H]2CC(C)(C)OC[C@@]32C)ccc1N1C[C@@H]2C[C@H]1CN2C` (single isomer, unassigned) [Example 430] yielded an IC50 of 0.01 to 0.1 µM. `CN1C[C@@H]2C[C@H]1CN2c1ccc(Nc2ncc3c(n2)N(c2cccc(C(C)(C)O)n2)[C@H]2CC(C)(C)OC[C@@]32C)cc1F` (single isomer, unassigned) [Example 432] had an IC50 of 0.1 to 1 µM. Molecule `CN1C[C@H]2C[C@@H]1CN2c1ccc(Nc2ncc3c(n2)N(c2cccc(C(C)(C)O)n2)[C@H]2CC(C)(C)OC[C@@]32C)cc1Cl` (single isomer, unassigned) [Example 434] gave an IC50 of 0.01 to 0.1 µM.

On to `CN1C[C@@H]2C[C@H]1CN2c1ccc(Nc2ncc3c(n2)N(c2cccc(C(C)(C)O)n2)[C@H]2CC(C)(C)OC[C@@]32C)cc1Cl` (single isomer, unassigned) [Example 436], for which the IC50 is 0.01 to 0.1 µM. Turning to `CN1CC[C@@H]2CN(c3ccc(Nc4ncc5c(n4)N(c4cccc(C(C)(C)O)n4)[C@H]4CC(C)(C)OC[C@@]54C)cc3)C[C@@H]21` (single isomer, unassigned) [Example 438], the IC50 was in the range of 0.1 to 1 µM. Regarding `CN1CC[C@H]2CN(c3ccc(Nc4ncc5c(n4)N(c4cccc(C(C)(C)O)n4)[C@H]4CC(C)(C)OC[C@@]54C)cc3)C[C@H]21` (single isomer, unassigned) [Example 440], the IC50 is 0.01 to 0.1 µM.

Molecule `CN1[C@@H]2C[C@H]1CN(c1ccc(Nc3ncc4c(n3)N(c3cccc(C(C)(C)O)n3)[C@H]3CC(C)(C)OC[C@@]43C)cc1)C2` (single isomer, unassigned) [Example 442] yielded a 50% inhibitory concentration (IC50) of 0.1 to 1 µM.

`CN1CC2(C1)CN(c1ccc(Nc3ncc4c(n3)N(c3cccc(C(C)(C)O)n3)[C@H]3CC(C)(C)OC[C@@]43C)cc1)C2` (single isomer, unassigned) [Example 444]: the half-inhibitory concentration (IC50) is 0.1 to 1 µM. `CN1C[C@@H]2CN(c3ccc(Nc4ncc5c(n4)N(c4cccc(C(C)(C)O)n4)[C@H]4CC(C)(C)OC[C@@]54C)cc3)C[C@@H]2C1` (single isomer, unassigned) [Example 445] returned an IC50 of 0.1 to 1 µM. The molecule `CNCc1cccc(N2c3nc(Nc4ccc(N5CCN(C)CC5)c(C)c4)ncc3[C@]3(C)COC(C)(C)C[C@H]23)n1` (single isomer, unassigned) [Example 447] yielded an IC50 of 0.1 to 1 µM.

Take `CNCc1cccc(N2c3nc(Nc4ccc(N5CCN(C)C(=O)C5)cc4)ncc3[C@]3(C)COC(C)(C)C[C@H]23)n1` (single isomer, unassigned) [Example 449]: the IC50 was in the range of 0.01 to 0.1 µM. Regarding `CNCc1cccc(N2c3nc(Nc4ccc([C@H]5CCNC5)cc4)ncc3[C@]3(C)COC(C)(C)C[C@H]23)n1` (single isomer, unassigned) [Example 451], the IC50 is 0.1 to 1 µM. As to `CNCc1cccc(N2c3nc(Nc4ccc([C@@H]5CCNC5)cc4)ncc3[C@]3(C)COC(C)(C)C[C@H]23)n1` (single isomer, unassigned) [Example 453], the IC50 fell in the range of 0.1 to 1 µM.

For the molecule `CNCc1cccc(N2c3nc(Nc4ccn(C)c(=O)c4)ncc3[C@]3(C)COC(C)(C)C[C@H]23)n1` (single isomer, unassigned) [Example 455], the IC50 was ≥ 1 µM. On to `CNCc1cccc(N2c3nc(Nc4ccn(C)c(=O)c4)ncc3[C@@]3(C)COC(C)(C)C[C@@H]23)n1` (single isomer, unassigned) [Example 456], for which the IC50 lay within 0.01 to 0.1 µM. As to `CNCc1cccc(N2c3nc(Nc4ccc(C(C)(C)C(=O)O)cc4)ncc3[C@]3(C)COC(C)(C)C[C@H]23)n1` (single isomer, unassigned) [Example 457], the IC50 was ≥ 1 µM.

In the case of `CNCc1cccc(N2c3nc(Nc4ccc(-c5cnn(C)c5)nc4)ncc3[C@]3(C)COC(C)(C)C[C@H]23)n1` (single isomer, unassigned) [Example 459], the 50% inhibitory concentration (IC50) lay in the range of 0.1 to 1 µM. On the same count and under the same terms, next, `CNCc1cccc(N2c3nc(Nc4ccc(=O)n(C)c4)ncc3[C@]3(C)COC(C)(C)C[C@H]23)n1` (single isomer, unassigned) [Example 461]: ≥ 1 µM; `CNCc1cccc(N2c3nc(Nc4ccc(=O)n(C)c4)ncc3[C@@]3(C)COC(C)(C)C[C@@H]23)n1` (single isomer, unassigned) [Example 462]: 0.01 to 0.1 µM; `CNCc1cccc(N2c3nc(Nc4ccc(-c5cnn(C)c5)c(C)c4)ncc3[C@]3(C)COC(C)(C)C[C@H]23)n1` (single isomer, unassigned) [Example 463]: 0.1 to 1 µM.
